According to patent US20130259830A1, “CRTH2 MODULATORS” (Ironwood Pharmaceuticals, Inc., priority 2010, published 2013):

How the values were obtained:
CRTH2 [1] = target: T1, CRTH2 (Homo sapiens, UniProt Q9Y5Y4); assay: DPBS CD11b antagonist assay (CD11b expression in eosinophils challenged with 15R-Methyl-PGD2); format: cell-based; conditions: polymorphonuclear cells in PBS with CaCl2/MgCl2; agonist 15R-Methyl-PGD2 10 nM; eosinophils gated by flow cytometry
T1 construct: endogenous in cells; host or cells: eosinophils in human whole blood
T1 sequence (Q9Y5Y4 1-395): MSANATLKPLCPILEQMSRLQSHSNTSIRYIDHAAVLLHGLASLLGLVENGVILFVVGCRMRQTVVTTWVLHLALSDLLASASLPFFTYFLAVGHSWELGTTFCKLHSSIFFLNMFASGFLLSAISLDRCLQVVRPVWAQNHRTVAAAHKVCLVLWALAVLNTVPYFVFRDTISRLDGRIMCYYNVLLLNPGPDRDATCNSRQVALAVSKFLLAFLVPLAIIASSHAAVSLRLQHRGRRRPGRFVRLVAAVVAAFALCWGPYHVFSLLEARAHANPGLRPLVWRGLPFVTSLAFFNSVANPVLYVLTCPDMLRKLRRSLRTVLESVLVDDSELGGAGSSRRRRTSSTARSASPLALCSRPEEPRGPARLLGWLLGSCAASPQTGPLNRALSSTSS
Protocol: DPBS CD111b Antagonist Assay.
The potential CRTH2 antagonist, activity of certain compounds was tested using a CD11b expression assay using essentially the method described by Monneret et al. (J Pharmacol Exp Ther 304:349-55, 2003). Briefly, polymorphonuclear cells (0.5 ml; 10^6/ml cells) in PBS containing 0.9 mM CaCl2 and 0.5 mM MgCl2) were preincubated with various concentrations of test compounds at room temperature for 10 minutes before they were challenged with the agonist 15R-Methyl-PGD2 (10 nM). The incubations were terminated by the addition of ice-cold FACSFlow (BD Biosciences; Cat#342003) and centrifugation (400 g for 5 minutes at 4° C.). The cells were then incubated for 30 minutes at 4° C. with a mixture of PE-labeled mouse anti-human VLA-4 (5 μl; BD Biosciences) and FITC-labeled mouse anti-human CD11b (10 μl; Beckman Coulter). The cells were then incubated with Optilyse C (0.25 ml; Beckman Coulter) for 15 minutes, centrifuged, and then fixed in PBS (0.4 ml; calcium and magnesium free) containing 1% formaldehyde. The distribution of fluorescence intensities among 60,000 cells was measured by flow cytometry. Eosinophils were gated out on the basis of their granularity (high side scatter) and labeling with VLA-4 (PE fluorescence). CD11b was then measured in the eosinophil region on the basis of fluorescence due to FITC. All data were corrected for the value obtained for the corresponding isotope control antibody.

CRTH2 [2] = target: T1, CRTH2; assay: Human whole blood CD11b antagonist assay (CD11b expression in eosinophils challenged with 15-R-methyl-PGD2); format: cell-based; conditions: 37° C. 10 minutes preincubation, agonist 15R-Methyl-PGD2 10 nM, eosinophils gated by flow cytometry
Protocol: Human Whole Blood […] Antagonist Assay (Modified from Nicholson, et al. Pulmonary Pharmacology and Therapeutics: 20 (2007); 52-59).
The potential CRTH2 antagonist activity of certain compounds was tested in human whole blood using an assay that tests the ability of the compounds to block the CD11b expression in eosinophils by 15-R-methyl-PGD2. A CRTH2 antagonist should block CD11b expression by subsequently added 15-Methyl-PGD2. Human whole blood (200 μL) was incubated at 37° C. for 10 minutes in the presence of various concentrations of test compounds before being challenged with the agonist 1-5R-Methyl-PGD2 (10 nM). Reactions were terminated by the addition of ice-cold PBS+0.5% BSA+2 mM EDTA (1 mL) and centrifugation (300×g for 5 minutes at 4° C.) Cells were then incubated at 4° C. for 10 min in the presence of human IgG. Cells were then incubated for 30-45 min with a mixture of PE-Cy5-labeled mouse anti-human CD16 (10 ul; BD Biosciences) and FITC-labeled mouse anti-human CD11b (10 μL; Beckman Coulter.) After rinsing (1 mL ice-cold PBS+0.5% BSA+2 mM EDTA), red blood cells were lysed by the addition of 1 mL ice-cold H2O to the cell pellet for 30 sec-1 min immediately followed by the addition of 3.5% NaCl (300 μL.) Cells were then rinsed (2×−1 ml ice cold PBS+0.5% BSA+2m MEDTA) and fixed in PBS containing 1% formaldehyde. The distribution of fluorescence intensities was measured by flow cytometry. Eosinophils were gated out on the basis of their granularity (high side scatter) and absence of CD-16. CD11b was then measured on this eosinophil population on the basis of fluorescence due to FITC.

Row | IC50 (CRTH2 [1]) | IC50 (CRTH2 [2]) | SMILES
1 | 100 to 500 nM | 500 to 3000 nM | Cc1c(Cc2cccnc2S(=O)(=O)c2ccc(C(F)(F)F)cc2)c2c(n1CC(=O)O)CC(C)(C)CC2=O [Compound I-12, 2-(2,6,6-Trimethyl-4-oxo-3-((2-(4-(trifluoromethyl)phenylsulfonyl)pyridin-3-yl)methyl)-4,5,6,7-tetrahydro-1H-indol-1-yl)acetic acid]
2 | < 1 nM | 20 to 100 nM | COc1ccc(S(=O)(=O)c2ncccc2Cc2c3c(n(CC(=O)O)c2C)CC(C)(C)CC3=O)cc1 [Compound I-7, 2-(3-((2-(4-methoxyphenylsulfonyl)pyridin-3-yl)methyl)-2,6,6-trimethyl-4-oxo-4,5,6,7-tetrahydro-1H-indol-1-yl)acetic acid]
3 | < 1 nM | 1 to 5 nM | Cc1ccc(S(=O)(=O)Nc2ccccc2Cc2c3c(n(CC(=O)O)c2C)CC(C)(C)CC3=O)cc1 [Compound I-23, 2-(2,6,6-Trimethyl-3-(2-(4-methylphenylsulfonamido)benzyl)-4-oxo-4,5,6,7-tetrahydro-1H-indol-1-yl)acetic acid]
4 | < 1 nM | 5 to 20 nM | Cc1c(Cc2ccccc2NS(=O)(=O)c2ccc(OCc3ccccc3)cc2)c2c(n1CC(=O)O)CC(C)(C)CC2=O [Compound I-46, 2-(3-(2-(4-(Benzyloxy)phenylsulfonamido)benzyl)-2,6,6-trimethyl-4-oxo-4,5,6,7-tetrahydro-1H-indol-1-yl)acetic acid]
5 | < 1 nM | 20 to 100 nM | Cc1c(Cc2ccccc2NS(=O)(=O)c2ccc(C(F)(F)F)cc2)c2c(n1CC(=O)O)CC(C)(C)CC2=O [Compound I-25, 2-(2,6,6-Trimethyl-4-oxo-3-(2-(4-(trifluoromethyl)phenylsulfonamido)benzyl)-4,5,6,7-tetrahydro-1H-indol-1-yl)acetic acid]
6 | 500 to 3000 nM | 500 to 3000 nM | Cc1c(Cc2cccnc2S(C)(=O)=O)c2c(n1CC(=O)O)CC(C)(C)CC2=O [Compound I-32, 2-(2,6,6-Trimethyl-3-((2-(methylsulfonyl)pyridin-3-yl)methyl)-4-oxo-4,5,6,7-tetrahydro-1H-indol-1-yl)acetic acid]
7 | 20 to 100 nM | 500 to 3000 nM | CCOC(=O)Cn1c(C)c(Cc2cccnc2S(=O)(=O)c2ccc(F)cc2)c2c1CC(C)(C)CC2=O [Compound I-8, ethyl 2-(3-((2-(4-fluorophenylsulfonyl)pyridin-3-yl)methyl)-2,6,6-trimethyl-4-oxo-4,5,6,7-tetrahydro-1H-indol-1-yl)acetate]
8 | < 1 nM | 5 to 20 nM | Cc1c(Cc2ccccc2NS(=O)(=O)c2ccccc2)c2c(n1CC(=O)O)CC(C)(C)CC2=O [Compound I-24, 2-(2,6,6-Trimethyl-4-oxo-3-(2-(phenylsulfonamido)benzyl)-4,5,6,7-tetrahydro-1H-indol-1-yl)acetic acid]
9 | 5 to 20 nM | 500 to 3000 nM | CCOC(=O)Cn1c(C)c(Cc2cccnc2S(=O)(=O)c2ccc(OC)cc2)c2c1CC(C)(C)CC2=O [Compound I-6, ethyl 2-(3-((2-(4-methoxyphenylsulfonyl)pyridin-3-yl)methyl)-2,6,6-trimethyl-4-oxo-4,5,6,7-tetrahydro-1H-indol-1-yl)acetate]
10 | < 1 nM | 1 to 5 nM | Cc1c(Cc2ccccc2NS(=O)(=O)c2ccc(O)cc2)c2c(n1CC(=O)O)CC(C)(C)CC2=O [Compound I-48, 2-(3-(2-(4-Hydroxyphenylsulfonamido)benzyl)-2,6,6-trimethyl-4-oxo-4,5,6,7-tetrahydro-1H-indol-1-yl)acetic acid]
11 | 100 to 500 nM | 500 to 3000 nM | CCOC(=O)Cn1c(C)c(Cc2cccnc2S(=O)(=O)c2ccccc2)c2c1CC(C)(C)CC2=O [Compound I-9, ethyl 2-(2,6,6-trimethyl-4-oxo-3-((2-(phenylsulfonyl)pyridin-3-yl)methyl)-4,5,6,7-tetrahydro-1H-indol-1-yl)acetate]
12 | 100 to 500 nM | 500 to 3000 nM | CCOC(=O)Cn1c(C)c(Cc2cccnc2S(=O)(=O)c2cccc(OC)c2)c2c1CC(C)(C)CC2=O [Compound I-11, Ethyl 2-(3-((2-(3-methoxyphenylsulfonyl)pyridin-3-yl)methyl)-2,6,6-trimethyl-4-oxo-4,5,6,7-tetrahydro-1H-indol-1-yl)acetate]
13 | 5 to 20 nM | 20 to 100 nM | Cc1c(Cc2ccccc2NS(=O)(=O)N2CCCC2)c2c(n1CC(=O)O)CC(C)(C)CC2=O [Compound I-47]
14 | 1 to 5 nM | 20 to 100 nM | Cc1c(Cc2cc(OCC(F)(F)F)ccc2NS(=O)(=O)c2ccccc2)c2c(n1CC(=O)O)CC(C)(C)CC2=O [Compound I-36, 2-(2,6,6-Trimethyl-4-oxo-3-(2-(phenylsulfonamido)-5-(2,2,2-trifluoroethoxy)benzyl)-4,5,6,7-tetrahydro-1H-indol-1-yl)acetic acid]
15 | 1 to 5 nM | 100 to 500 nM | Cc1c(Cc2ccccc2NS(=O)(=O)N2CCCC2)c2c(n1CC(=O)O)CC(C)(C)CC2=O [Compound I-44]
16 | 100 to 500 nM | 500 to 3000 nM | CCOC(=O)Cn1c(C)c(Cc2cccnc2S(=O)(=O)c2ccc(Cl)cc2)c2c1CC(C)(C)CC2=O [Compound I-14, Ethyl 2-(3-((2-(4-chlorophenylsulfonyl)pyridin-3-yl)methyl)-2,6,6-trimethyl-4-oxo-4,5,6,7-tetrahydro-1H-indol-1-yl)acetate]
17 | < 1 nM | 5 to 20 nM | Cc1c(Cc2cccnc2S(=O)(=O)c2ccccc2C(F)(F)F)c2c(n1CC(=O)O)CC(C)(C)CC2=O [Compound I-17, 2-(2,6,6-Trimethyl-4-oxo-3-((2-(2-(trifluoromethyl)phenylsulfonyl)pyridin-3-yl)methyl)-4,5,6,7-tetrahydro-1H-indol-1-yl)acetic acid]
18 | < 1 nM | 5 to 20 nM | Cc1c(Cc2cccnc2S(=O)(=O)c2ccc(Cl)cc2)c2c(n1CC(=O)O)CC(C)(C)CC2=O [Compound I-15, 2-(3-((2-(4-Chlorophenylsulfonyl)pyridin-3-yl)methyl)-2,6,6-trimethyl-4-oxo-4,5,6,7-tetrahydro-1H-indol-1-yl)acetic acid]
19 | 5 to 20 nM | 20 to 100 nM | Cc1c(Cc2ccccc2N(C)S(=O)(=O)N2CCCC2)c2c(n1CC(=O)O)CC(C)(C)CC2=O [Compound I-43, 2-(2,6,6-Trimethyl-3-(2-(N-methylpyrrolidine-1-sulfonamido)benzyl)-4-oxo-4,5,6,7-tetrahydro-1H-indol-1-yl)acetic acid]
20 | 100 to 500 nM | 100 to 500 nM | Cc1c(Cc2cccnc2S(=O)(=O)C2CC2)c2c(n1CC(=O)O)CC(C)(C)CC2=O [Compound I-4, 2-(3-((2-(cyclopropylsulfonyl)pyridin-3-yl)methyl)-2,6,6-trimethyl-4-oxo-4,5,6,7-tetrahydro-1H-indol-1-yl)acetic acid]

Row | SMILES | IC50 (CRTH2 [1]) | IC50 (CRTH2 [2])
21 | Cc1c(Cc2ccccc2S(=O)(=O)N2CCCC2)c2c(n1CC(=O)O)CC(C)(C)C/C2=N\OC(C)(C)C [Compound I-30, (E)-2-(4-(tert-Butoxyimino)-2,6,6-trimethyl-3-(2-(pyrrolidin-1-ylsulfonyl)benzyl)-4,5,6,7-tetrahydro-1H-indol-1-yl)acetic acid] | 1 to 5 nM | 100 to 500 nM
